From patent US9549911B2, “Ginger metabolites and uses thereof” (North Carolina A&T State University, priority 2012, dated 2017)

Columns and labels:
[1] = tested on: human colon cancer cells HCT-116; assay: MTT toxicity in colon cancer and normal colon cells (Part 5); format: cell-based; conditions: HCT-116, 24 hours
Description: (§1) Cell viability was determined by an MTT colorimetric assay. […] The reading reflected the number of viable cells and was expressed as a percentage of viable cells in the control. CCD-18Co cells were grown in EMEM. Both HCT-116 and HT-29 cells were cultured in McCoy's 5A medium. All of the above media were supplemented with 10% fetal bovine serum, 1% penicillin/streptomycin, and 1% glutamine, and the cells were kept in a 37° C. incubator with 95% humidity and 5% CO2.

[2] = tested on: human colon cancer cells HT-29; assay: as above; format: cell-based; conditions: HT-29 (p53 mutant), 24 hours
Description: as §1

[3] = tested on: human colon fibroblast cells CCD-18Co; assay: as above; format: cell-based; conditions: normal colon cells CCD-18Co, 24 hours
Description: as §1

HCT-116 cells [4] = assay: Western blot analysis of apoptosis markers and p53 (Part 5); format: cell-based, human; conditions: HCT-116 (p53 wild-type), 24 hours; M2, 6S 10, 20 or 40 μM; 8S, M2′, 10S, M2″ 20 μM
Description: (§2) Cell lysates were prepared in ice-cold RIPA lysis buffer [25 mM Tris-HCl (pH 7.6), 150 mM NaCl, 1% NP-40, 1% sodium deoxycholate, 0.1% SDS, Thermo Fisher Scientific] supplemented with a protease inhibitor cocktail (AEBSF, aprotinin, bestatin, E-64, leupeptin and pepstatin A in DMSO with EDTA, Thermo Fisher Scientific). Protein content was measured by a Pierce BCA Assay Kit (Thermo Fisher Scientific). Protein contents of cell lysates (30 μg protein/lane) were resolved by SDS-PAGE. Proteins were then electro-transferred onto PVDF membranes and blots were blocked for one hour at room temperature in 1×TBS with 1% Casein (Bio-Rad Laboratories, Berkeley, Calif.). Blots were then incubated overnight at 4° C. with the desired primary antibody diluted in TBS with 0.5% Tween-20. Blots were then washed with TBS-Tween 20 and probed for 1 hour with the appropriate secondary antibody (1:1000). Protein bands were visualized with chemiluminescence using West Femto maximum detection substrate (Thermo Fisher Scientific). To confirm equal protein loading in each lane, immunoblots were stripped and re-probed for β-actin. Protein fold-induction was calculated by normalizing the intensity of the band of interest to β-actin first, and then to DMSO control lanes.

HT-29 cells = assay: as above; format: cell-based, human; conditions: HT-29 (p53 mutant), 24 hours; M2, 6S 10, 20 or 40 μM; 8S, M2′, 10S, M2″ 20 μM
Description: as §2

[5] = tested on: human colon cancer cells HCT-116; assay: MTT growth inhibition of human cancer and normal cells (Part 2); format: cell-based; conditions: Homo sapiens; HCT-116, 48 h, 0 to 80 μM
Description: (§3) Growth inhibition of human cancer and normal cells. Cell growth inhibition was determined by a MTT colorimetric assay. Human colon cancer cells HCT-116, human lung cancer cells H-1299, human colon fibroblast cells CCD-18Co, and human lung fibroblast cells IMR-90 were plated in 96-well microtiter plates with 3000 cells/well and allowed to attach for 24 h at 37° C. […] After the cells were cultured for 48 h, the medium was aspirated and cells were treated with 200 μL fresh medium containing 2.41 mmol/L MTT. […] The reading reflected the number of viable cells and was expressed as a percentage of viable cells in the control. Both HCT-116 and H-1299 cells were cultured in McCoy's 5A medium. CCD-18Co and IMR-90 cells were cultured in Eagle's modified essential medium (EMEM). All of the above media were supplemented with 10% fetal bovine serum, 1% penicillin/streptomycin, and 1% glutamine, and the cells were kept in a 37° C. incubator with 95% humidity and 5% CO2.

[6] = tested on: human lung cancer cells H-1299; assay: as above; format: cell-based; conditions: Homo sapiens, NCI-H1299; H-1299, 48 h, 0 to 80 μM
Description: as §3

in vitro [7] = format: cell-based, human; conditions: human
Description: as §3

in vitro [8] = format: cell-based, human; conditions: human; remark: listed apart in the source
Description: as §3

H-1299 cells = assay: TUNEL apoptosis assay (Part 2); format: cell-based, human; conditions: H-1299, 20 or 40 μM, 24 hours
Description: (§4) HCT-116 and H1299 cells were seeded in 6-well plates at 1×10^5 cells/well and incubated at 37° C. in 5% CO2 incubator. After 24 hours, fresh media supplemented with DMSO (control), [6]-shogaol, M2, M6, or M13 metabolites (20 μM or 40 μM) were added to the wells. After 6 or 24 hours incubation at 37° C. in 5% CO2 incubator, cells were washed and pre-treated for 15 min at room temperature with a solution of 20 μg/ml proteinase K. Cells were then washed twice with phosphate buffer saline pH 7.4 (PBS) and fixed for 10 min at room temperature using 10% neutral formaldehyde solution. After 2 washes in ddH2O, cells were resuspended in 100 μL ddH2O and applied on silanized microscope slides. Slides were incubated overnight at 37° C., and washed twice with PBS. TUNEL assay was then carried out according to the manufacturer's protocol. Cells were observed under 400× power using a Zeiss microscope A1 (Thornwood, N.Y.). 10 fields per slide were evaluated, and TUNEL+ cells (with brown coloration in the nucleus) were expressed as a percentage of the total number of cells contained in a field.

HCT-116 cells [9] = assay: TUNEL apoptosis assay (Part 2); format: cell-based, human; conditions: HCT-116, 20 or 40 μM, 24 hours
Description: as §4

[10] = Kinetic study of [6]-shogaol metabolism to M6 in liver microsomes; conditions: human
Description: To estimate kinetic parameters of metabolism of [6]-shogoal to major product M6 in liver microsomes from human and other species, the incubation conditions were optimized to ensure that formation rate of M6 was in the linear range in relation to incubation time and protein concentration. [6]-Shogaol (7.81, 15.63, 31.25, 62.5, 125, 250, 500, 1000, and 2000 μM) was incubated with liver microsomes from mouse (MLM), rat (RLM), dog (DLM), monkey (CyLM), and human (HLM) (0.1 mg/mL each, respectively) for 30 minutes. All incubations were performed in triplicate. The apparent Km and Vmax values were calculated from analysis of experimental data according to the Michaelis-Menten equation, and the results were graphically represented (for HLM) by an Eadie-Hofstee plot. Kinetic constants were reported as the value+/−S.E. of the parameter estimate.

[11] = as above; format: in vitro ADME, monkey; conditions: cynomolgus, monkey
Description: (§5) All incubations were performed in triplicate.

[12] = as above; format: in vitro ADME; conditions: dog liver microsomes 0.1 mg/mL, 30 min
Description: as §5

[13] = as above; format: in vitro ADME, rat; conditions: rat
Description: as §5

[14] = as above; format: in vitro ADME, mouse; conditions: mouse
Description: as §5

[15] = tested on: human colon cancer cells HCT-116; assay: MTT growth inhibition by M14 and M15 (Part 3); format: cell-based; conditions: Homo sapiens; HCT-116, 24 hours, 0 to 80 μM; read-out: IC50 (cell viability, MTT)
Description: as §1, with “Cell growth inhibition” for “Cell viability”, “by a” for “by an”, “control.” for “control. CCD-18Co cells were grown in EMEM.”, “and H-1299” for “and HT-29”

[16] = tested on: human lung cancer cells H-1299; assay: MTT growth inhibition by M14 and M15 (Part 3); format: cell-based; conditions: Homo sapiens, NCI-H1299; H-1299, 24 hours, 0 to 80 μM; read-out: IC50 (cell viability, MTT)
Description: as §1, with “Cell growth inhibition” for “Cell viability”, “by a” for “by an”, “control.” for “control. CCD-18Co cells were grown in EMEM.”, “and H-1299” for “and HT-29”

[17] = tested on: human colon cancer cells HCT-116; assay: Cell Death Detection ELISA apoptosis induction (Part 3); format: cell-based; conditions: 24 hours
Description: (§6) Human colon cancer cells HCT-116 and human lung cancer cells H-1299 were plated in 96-well plates at a density of 5000 cells/well and allowed to attach overnight at 37° C. M14, M15, or [6]-shogaol in DMSO, or DMSO control, diluted in media, were added to cells and incubated for an additional 24 hours at 37° C. After 24 hours, media containing compound was removed and cells were lysed in their respective wells with reagents from a Cell Death Detection ELISA^PLUS kit from Roche Applied Science (Mannheim, Germany). Samples were harvested after cell lysates were spun down at 300 g for 10 minutes. To streptavidin coated microplates, 20 μL samples were added, and mixed with 80 μL Immunoreagent, which consisted of anti-histone-biotin, and anti-DNA-POD, and incubated with gentle shaking for 2 hours at room temperature. After incubation, Immunoreagent was removed and samples were washed 3 times with 250 μL incubation buffer. Substrate solution, ABTS, was added to each well and color was developed for 15 minutes before stopping the reaction with ABTS stop solution and reading absorbance on a microplate reader at 430 nm. Experiments were performed in triplicate and the average is given in comparison to DMSO control with standard deviation.

[18] = tested on: human lung cancer cells H-1299; assay: as above; format: cell-based; conditions: 24 hours
Description: as §6

A549 lung cancer cells = conditions: 6S 30 mg/kg, M2 30 mg/kg, M14 10 mg/kg, oral gavage 5×/week, 7 weeks
Description: Nu/J nude mice were obtained from Jackson Laboratories (Bar Harbor, Me.). Animals were randomized into 4 groups. A549 cells (5×10^6 cells) were implanted in both flanks of 8-weeks old Nu/J mice. One week after implantation, animals were given 100 μl of the following treatments through oral gavage 5 times/week: DMSO 0.25 ml/kg (control; n=4); 6S 10 mg/kg (n=4); 6S 30 mg/kg (n=4) or M2 30 mg/kg (n=5). Compounds were diluted in a solution of 5% DMSO in corn oil. Animal body weight and tumor volume were recorded for the duration of the experiment. Tumor volume was calculated by measuring the length and width of the tumors using a digital caliper and using the formula (Length×Width^2)/2. One hour before sacrifice, mice were given one last treatment dose as well as one intra-peritoneal injection of BrdU (7.5 mg/kg in 100 μl PBS). After 7 weeks, tumor tissues were harvested and weighed. A portion of the tumors was snap frozen in liquid nitrogen and another portion was placed in a histology cassette and immersed in formalin solution.
[…] tissues were sent to Precision Histology Lab (Oklahoma City, Okla.) for embedding in paraffin blocks. Then paraffin blocks were processed into 3-4 μm sections that were then put on microscope slides. Sections were then deparaffinized by using a succession of 3 baths of xylene (5 minutes each), 2 baths of absolute ethanol (5 minutes each), 95% ethanol for 3 minutes, 70% ethanol for 3 minutes, and rinsed in PBS. Immunostaining with TUNEL (terminal deoxynucleotidyl transferase dUTP nick end labeling) and BrdU staining kits was performed following manufacturer's recommendation. For staining quantification, sequential high-power field pictures of tumors were taken (10 pictures per tumor) using an A1 Zeiss microscope (Oberkochen, Germany). Images were processed using the Image J software, which was used to count positive, brown-colored cells in each field. Average number per tumor was calculated by averaging the number obtained for each field, and the average number of positive cells per group was obtained by averaging the values of each tumor belonging to the experimental group.
8 week-old nude mice (Jackson Laboratory, Maine) were randomized into 5 groups based on treatment (DMSO: n=4; 6S 10 mg/kg: n=4 (“6S 10”); 6S 30 mg/kg: n=4 (“6S 30”); M2 30 mg/kg: n=5 (“M2 30”); M14 10 mg/kg: n=4 (“M14 10”)). Animals were implanted with 5×10^6 A549 lung cancer cells (adenocarcinomic human alveolar basal epithelial cells) on each flank. The mice had access to food and water ad libitum. One week post implantation, the animals started receiving their respecting treatments through oral gavage (100 μl in corn oil and 5% DMSO), 5×/week. After 7 weeks of treatment, the tumor tissues were harvested.

| IC50 [15] [µM] | IC50 [16] [µM] | SMILES | IC50 [1] [µM] | IC50 [2] [µM] | IC50 [3] [µM] | p53 expression (Western blot) (HCT-116 cells [4]) | p53 expression (Western blot) (HT-29 cells) | induction of apoptosis compared to DMSO control ([17]; HCT-116, 10 μM) | induction of apoptosis compared to DMSO control ([18]; H-1299, 10 μM) | other results |
| --- | --- | --- | --- | --- | --- | --- | --- | --- | --- | --- |
| – | – | CCCCCCC/C=C/C(=O)CCc1ccc(O)c(OC)c1 [8S, [8]-shogaol, reference compound] | 22.8 | 27.9 | 105 | increase in p53 accumulation | increase in p53 accumulation | – | – | – |
| – | – | CCCCCCCCC/C=C/C(=O)CCc1ccc(O)c(OC)c1 [10S, [10]-shogaol, reference compound] | 25.1 | 23.9 | 136 | increase in p53 accumulation | increase in p53 accumulation | – | – | – |
| – | – | CCCCCC=CC(O)CCc1ccc(O)c(OC)c1 (centres unmarked) [M6, 1-(4′-hydroxy-3′-methoxyphenyl)-4-decen-3-ol] | – | – | – | – | – | – | – | IC50 [5]: 68.8 µM; IC50 [6]: 61.3 µM; IC50 at 48 h (in vitro [7]): > 100 µM; IC50 at 48 h (in vitro [8]): > 100 µM; induction of apoptosis (TUNEL) versus DMSO (H-1299 cells): did not display any apoptotic effect; induction of apoptosis (TUNEL) versus DMSO (HCT-116 cells [9]): did not display any apoptotic effect; Vmax of M6 formation [10]: 10.82 +/− 0.47 nanomoles per minute per milligram liver microsomes; Vmax of M6 formation [11]: 2.99 +/− 0.28 nanomoles per minute per milligram liver microsomes; Vmax of M6 formation [12]: 7.33 +/− 0.43 nanomoles per minute per milligram liver microsomes; Vmax of M6 formation [13]: 8.19 +/− 0.48 nanomoles per minute per milligram liver microsomes; Vmax of M6 formation [14]: 4.10 +/− 0.19 nanomoles per minute per milligram liver microsomes |
| 3.22 | 3.04 | CCCCC/C=C/C(=O)/C=C/c1ccc(O)c(OC)c1 [M14, (1E, 4E)-1-(4′-hydroxy-3′-methoxyphenyl)-deca-1,4-dien-3-one] | – | – | – | – | – | about 6 fold | 7-8 fold | induction of apoptosis compared to DMSO control ([17]; HCT-116, 1 μM): 2 fold; induction of apoptosis compared to DMSO control ([18]; H-1299, 1 μM): 1 fold; tumor size versus control group (A549 lung cancer cells): Reduction in tumor size |
| 43 | 41.6 | CCCCCCCC(=O)/C=C/c1ccc(O)c(OC)c1 [M15, (E)-1-(4′-hydroxy-3′-methoxyphenyl)-dec-1-en-3-one] | – | – | – | – | – | 1 fold | ~2 fold | – |
